# Reference: patent US20250263376A1, “(E)-N-CINNAMOYLAMINOALKANOLS WITH MELANOGENESIS INHIBITORY ACTIVITY” (Uniwersytet Jagiellonski, priority 2024, published 2025)
# Assays:
# fibroblasts (BJ) [1] = experiment: Safety, LDH test in fibroblasts; type: cell-based; conditions: 48 hours, vs Triton X-100
# Description: (§1) In order to test the safety of the compounds, both normal human cells were used: keratinocytes (HaCaT), fibroblasts (BJ), primary melanocytes that occur in the skin, as well as human cancer cells: the hepatocarcinoma line HepG2 and the neuroblastoma line SH-SY5Y, which are considered a model for the assessment of hepatocytotoxicity and neurocytotoxicity. The concentrations of the tested compounds in the range of […] were used in the studies. The cell lines used in the research were purchased from the American Type Culture Collection (ATCC) and were cultured in media recommended by the manufacturer with the addition of FBS and antibiotics in an incubator ensuring appropriate culture conditions, i.e. humidity, temperature and CO2 concentration. Cells were seeded into multiwell plates and incubated with the test compounds for 48 hours. After this time, MTT and LDH tests were performed to assess cell viability. The MTT test is based on the ability to transform the substrate: [3-(4,5-dimethyl-2-thiazolyl)-2,5-diphenyl-2H-tetrazolium bromide into a colored product only by living cells. The absorbance at 570 nm, which corresponds to the absorption maximum for the product, is directly proportional to cell viability. The LDH test is based on testing the activity of the enzyme lactate dehydrogenase in the culture medium, which is released from cells as a result of damage to the cell membrane, e.g. as a result of cell death. Triton X-100 was used as a positive control in the test. The determination is colorimetric, the substrate is transformed by the released enzyme into a colored product, an increase in absorbance indicates a larger amount of the released enzyme, and thus confirms greater damage to cell membranes. Tables 7 and 8 present the results obtained, which correspond to the viability of cells incubated with the compounds in relation to the viability of cells constituting a control sample, i.e. incubated with the solvent (DMSO) at the same concentration as in the case of the groups tested in the MTT test or in relation to the results obtained for the Triton X-100 positive control in the LDH test. They indicate that the compounds are safe at the concentrations tested.
# S. typhimurium TA1535 = experiment: Ames microplate test, TA1535;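 further: bacteria exposed 90 min at 37 °C in exposure medium, then 48 h in indicator medium in 384-well plates, yellow (revertant) wells counted per condition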
# Description: The study used the Ames microplate test (Ames MPF™ Penta 2 by Xenometrix, Allschwil, Switzerland). Growth medium, exposure medium, indicator medium, positive controls, hepatic microsomal fraction, NADP, glucose-6-phosphate, Salmonella typhimurium and Escherichia coli strains were components of the purchased experimental kit. Bacteria were grown overnight in growth medium. They were then exposed to the test compound at the appropriate concentration in exposure medium without or with the rat microsomal fraction S9 in 24-well plates for 90 min at 37° C. with shaking. Then, indicator medium was added to the wells and pipetted into 384-well plates, which were incubated for 48 hours at 37° C. without shaking. Results were assessed by counting the wells in which the medium turned yellow for each experimental condition.
# hepatocarcinoma HepG2 [2] = experiment: Safety, MTT test in HepG2; type: cell-based; conditions: 48 hours
# Description: as §1
# primary melanocytes [3] = experiment: Safety, MTT test in primary melanocytes; type: cell-based; conditions: 48 hours
# Description: as §1
# fibroblasts (BJ) [4] = experiment: Safety, MTT test in fibroblasts; type: cell-based; conditions: 48 hours
# Description: as §1
# S. typhimurium TA1537 = experiment: Ames microplate test, TA1537; type: cell-based, Salmonella typhimurium
# Description: Bacteria were grown overnight in growth medium.
# hepatocarcinoma HepG2 [5] = experiment: Safety, LDH test in HepG2; type: cell-based; conditions: 48 hours, vs Triton X-100
# Description: as §1
# neuroblastoma SH-SY5Y [6] = experiment: Safety, LDH test in SH-SY5Y; type: cell-based; conditions: 48 hours, vs Triton X-100
# Description: as §1
# primary melanocytes [7] = experiment: Safety, LDH test in primary melanocytes; type: cell-based; conditions: 48 hours, vs Triton X-100
# Description: as §1
# [8] = tested on: reconstructed human epidermis containing melanocytes MelanoDerm MEL-300-B; experiment: Melanogenesis inhibition in reconstructed human epidermis containing melanocytes (MelanoDerm); type: cell-based; conditions: 1.0% in 50% PEG (10 μL), 14 days, MTT
# Description: Melanogenesis Inhibition Studies in a Model of Reconstructed Human Epidermis Containing Melanocytes (MelanoDerm by Mattek).
# The research was carried out on reconstructed human epidermis containing melanocytes MelanoDerm™ MEL-300-B from MatTek (Bratislava, Slovakia). The ratio of keratinocytes to melanocytes in the epidermis used is 10:1. Only medium purchased from the same manufacturer (EPI-100-NMM-113) was used to culture the epidermis during the experiments. Once the epidermis was obtained, it was transferred to 12-well plates containing 5 mL of medium/well. Plates were used to enable proper contact of the lower parts of the inserts with the substrate (so-called hanging-top plate). Solutions of the compounds were prepared immediately before their application. The solutions were applied to the inserts using a positive displacement pipette and then distributed using a sterile glass bulb headed Pasteur pipette. The application was repeated every 48 hours, a total of 7 applications were performed. Before the next application, each insert was rinsed with sterile DPBS and dried with a sterile cotton buds. The application was also accompanied by a change of the medium. […] The epidermis was cultured in an incubator ensuring appropriate humidity, temperature (37° C.) and CO2 concentration (5%).
# The experiment was conducted for 14 days. After this time, the inserts were rinsed with DPBS and dried with a cotton swab. For the selected pool of inserts, tissue viability was assessed using the MTT (Thiazolyl Blue Tetrazolium bromide) test, the remaining ones were used to determine the amount of melanin. To assess viability, the inserts were transferred to 24-well plate containing 0.3 mL of DMEM medium with 1 mg/mL MTT and incubated for 3 hours in an incubator. The epidermis was then placed in 2 mL of isopropanol and the resulting formazan was extracted for 2 hours at room temperature. The absorbance of the samples was measured at 570 nm in a microplate reader and correlated with the absorbance of the control by the formula: % Viability=[OD (570 nm) for test compound/OD (570 nm) for control]×100. To determine the amount of melanin, the inserts were incubated in 5% sodium bicarbonate for 30 min, then dried and placed in 0.5 mL of Solvable™ reagent, which caused complete lysis of the epidermis. After heating at 95° C., the absorbance of the samples was measured at 405 nm in a microplate reader. On this basis, the reduction in the amount of melanin was calculated in relation to the control sample. The absorbance results were also correlated with a standard curve for synthetic melanin.
# neuroblastoma SH-SY5Y [9] = experiment: Safety, MTT test in SH-SY5Y; type: cell-based; conditions: 48 hours
# Description: as §1
smiles,measurement,setting,value
"O=C(/C=C/c1ccccc1)NCCCCCO [Compound A-133, (2E)-N-(5-hydroxypentyl)-3-phenylprop-2-enamide]","LDH, Fibroblasts (BJ)",fibroblasts (BJ) [1]; 100 μM,5.00 percentage of positive control
same,"LDH, Fibroblasts (BJ)",fibroblasts (BJ) [1]; 150 μM,4.47 percentage of positive control
same,"LDH, Fibroblasts (BJ)",fibroblasts (BJ) [1]; 200 μM,14.72 percentage of positive control
same,"LDH, Fibroblasts (BJ)",fibroblasts (BJ) [1]; 250 μM,28.31 percentage of positive control
same,"Increase in the number of yellow wells compared to the reference level, TA1535","S. typhimurium TA1535; 0.5 mM, + S9",0.47
same,"Increase in the number of yellow wells compared to the reference level, TA1535","S. typhimurium TA1535; 0.5 mM, without S9",0.92
same,"Increase in the number of yellow wells compared to the reference level, TA1535","S. typhimurium TA1535; 1.0 mM, + S9",0.23
same,"Increase in the number of yellow wells compared to the reference level, TA1535","S. typhimurium TA1535; 1.0 mM, without S9",0.55
same,"Increase in the number of yellow wells compared to the reference level, TA1535","S. typhimurium TA1535; 2.0 mM, + S9",0.35
same,"Increase in the number of yellow wells compared to the reference level, TA1535","S. typhimurium TA1535; 2.0 mM, without S9",1.10
same,"MTT, Hepatocarcinoma HepG2",hepatocarcinoma HepG2 [2]; 100 μM,104.96 ± 7.60 % of solvent control
same,"MTT, Hepatocarcinoma HepG2",hepatocarcinoma HepG2 [2]; 150 μM,100.66 ± 7.39 % of solvent control
same,"MTT, Hepatocarcinoma HepG2",hepatocarcinoma HepG2 [2]; 200 μM,99.09 ± 1.60 % of solvent control
same,"MTT, Hepatocarcinoma HepG2",hepatocarcinoma HepG2 [2]; 250 μM,98.92 ± 2.34 % of solvent control
same,"MTT, Primary melanocytes",primary melanocytes [3]; 100 μM,103.69 ± 2.57 % of solvent control
same,"MTT, Primary melanocytes",primary melanocytes [3]; 150 μM,101.88 ± 2.47 % of solvent control
same,"MTT, Primary melanocytes",primary melanocytes [3]; 200 μM,97.05 ± 2.96 % of solvent control
same,"MTT, Primary melanocytes",primary melanocytes [3]; 250 μM,88.88 ± 2.26 % of solvent control
same,"MTT, Fibroblasts (BJ)",fibroblasts (BJ) [4]; 100 μM,99.41 ± 5.96 % of solvent control
same,"MTT, Fibroblasts (BJ)",fibroblasts (BJ) [4]; 150 μM,91.68 ± 3.64 % of solvent control
same,"MTT, Fibroblasts (BJ)",fibroblasts (BJ) [4]; 200 μM,87.76 ± 2.71 % of solvent control
same,"MTT, Fibroblasts (BJ)",fibroblasts (BJ) [4]; 250 μM,82.50 ± 3.99 % of solvent control
same,"Increase in the number of yellow wells compared to the reference level, TA1537","S. typhimurium TA1537; 0.5 mM, + S9",0.18
same,"Increase in the number of yellow wells compared to the reference level, TA1537","S. typhimurium TA1537; 0.5 mM, without S9",1.07
same,"Increase in the number of yellow wells compared to the reference level, TA1537","S. typhimurium TA1537; 1.0 mM, + S9",0.36
same,"Increase in the number of yellow wells compared to the reference level, TA1537","S. typhimurium TA1537; 1.0 mM, without S9",0.54
same,"Increase in the number of yellow wells compared to the reference level, TA1537","S. typhimurium TA1537; 2.0 mM, + S9",0.27
same,"Increase in the number of yellow wells compared to the reference level, TA1537","S. typhimurium TA1537; 2.0 mM, without S9",0.54
same,"LDH, Hepatocarcinoma HepG2",hepatocarcinoma HepG2 [5]; 100 μM,5.31 percentage of positive control
same,"LDH, Hepatocarcinoma HepG2",hepatocarcinoma HepG2 [5]; 150 μM,7.07 percentage of positive control
same,"LDH, Hepatocarcinoma HepG2",hepatocarcinoma HepG2 [5]; 200 μM,9.65 percentage of positive control
same,"LDH, Hepatocarcinoma HepG2",hepatocarcinoma HepG2 [5]; 250 μM,16.13 percentage of positive control
same,"LDH, Neuroblastoma SH-SY5Y",neuroblastoma SH-SY5Y [6]; 100 μM,5.33 percentage of positive control
same,"LDH, Neuroblastoma SH-SY5Y",neuroblastoma SH-SY5Y [6]; 150 μM,6.93 percentage of positive control
same,"LDH, Neuroblastoma SH-SY5Y",neuroblastoma SH-SY5Y [6]; 200 μM,8.49 percentage of positive control
same,"LDH, Neuroblastoma SH-SY5Y",neuroblastoma SH-SY5Y [6]; 250 μM,13.32 percentage of positive control
same,"LDH, Primary melanocytes",primary melanocytes [7]; 100 μM,4.68 percentage of positive control
same,"LDH, Primary melanocytes",primary melanocytes [7]; 150 μM,7.59 percentage of positive control
same,"LDH, Primary melanocytes",primary melanocytes [7]; 200 μM,16.71 percentage of positive control
same,"LDH, Primary melanocytes",primary melanocytes [7]; 250 μM,19.45 percentage of positive control
same,"Viability [% control, mean ± SD]",[8],101.22 ± 6.52 % control
same,"MTT, Neuroblastoma SH-SY5Y",neuroblastoma SH-SY5Y [9]; 100 μM,101.50 ± 3.33 % of solvent control
same,"MTT, Neuroblastoma SH-SY5Y",neuroblastoma SH-SY5Y [9]; 150 μM,100.75 ± 3.01 % of solvent control
same,"MTT, Neuroblastoma SH-SY5Y",neuroblastoma SH-SY5Y [9]; 200 μM,100.62 ± 5.99 % of solvent control
same,"MTT, Neuroblastoma SH-SY5Y",neuroblastoma SH-SY5Y [9]; 250 μM,100.41 ± 1.87 % of solvent control
"O=C(/C=C/c1ccccc1)NCCCCCCO [H-425/21, (E)-N-(6-hydroxyhexyl)cinnamic acid amide]","Increase in the number of yellow wells compared to the reference level, TA1535","S. typhimurium TA1535; 0.5 mM, + S9",0.54
same,"Increase in the number of yellow wells compared to the reference level, TA1535","S. typhimurium TA1535; 0.5 mM, without S9",1.04
same,"Increase in the number of yellow wells compared to the reference level, TA1535","S. typhimurium TA1535; 1.0 mM, + S9",0.40
same,"Increase in the number of yellow wells compared to the reference level, TA1535","S. typhimurium TA1535; 1.0 mM, without S9",0.59
same,"Increase in the number of yellow wells compared to the reference level, TA1535","S. typhimurium TA1535; 2.0 mM, + S9",0.94
same,"Increase in the number of yellow wells compared to the reference level, TA1535","S. typhimurium TA1535; 2.0 mM, without S9",0.45
same,"Increase in the number of yellow wells compared to the reference level, TA1537","S. typhimurium TA1537; 0.5 mM, + S9",1.33
same,"Increase in the number of yellow wells compared to the reference level, TA1537","S. typhimurium TA1537; 0.5 mM, without S9",0.09
same,"Increase in the number of yellow wells compared to the reference level, TA1537","S. typhimurium TA1537; 1.0 mM, + S9",0.00
same,"Increase in the number of yellow wells compared to the reference level, TA1537","S. typhimurium TA1537; 1.0 mM, without S9",0.18
same,"Increase in the number of yellow wells compared to the reference level, TA1537","S. typhimurium TA1537; 2.0 mM, + S9",1.00
same,"Increase in the number of yellow wells compared to the reference level, TA1537","S. typhimurium TA1537; 2.0 mM, without S9",0.82
same,"Viability [% control, mean ± SD]",[8],87.16 ± 6.30 % control
